Assay results published in patent US20020111274A1, “1-alkyl-3-[1-(substituted phenyl) benzotriazol-6-yl] uracils” (BASF Aktiengesellschaft, priority 2000, published 2002).

Assays:
Set-up in all cases: scale not given here
SETVI Foxtail, Green [1] = assay: Preemergence herbicidal evaluation, SETVI; assay type: in vivo, Setaria viridis, (L.) Beau; settings: preemergence
Procedure, shortened: (§1)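 Visual ratings were taken four to five weeks after application. Before that, cups sown with seed in potting soil received a spray of compound dissolved in aqueous acetone, equivalent to about 0.013 to 0.800 kg/ha, and stood on greenhouse benches under conventional care.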

ORYSAT Rice, Tebonnet [2] = assay: Postemergence herbicidal evaluation, ORYSAT; assay type: in vivo, Oryza sativa, (L.); settings: postemergence spray, rated about two-three weeks after treatment
Procedure, shortened: (§2)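 Ratings from greenhouse plants scored about two to three weeks after a foliar spray; data from multiple tests averaged. Seedlings about two weeks old received roughly 0.006–0.400 kg/ha active compound in 80/20 acetone/water with 1.0% methylated seed oil.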

CASOB Sicklepod [3] = assay: Preemergence herbicidal evaluation, CASOB; assay type: in vivo, Cassia obtusifolia, L.; settings: preemergence
Procedure, shortened: as §1

[4] = tested on: CHEAL Lambsquarters, Common; assay: Preemergence herbicidal evaluation, CHEAL; assay type: in vivo, Chenopodium album, L.; settings: preemergence
Procedure, shortened: as §1

[5] = tested on: TRZAWR Wheat, Winter, cv Riband; assay: Preemergence herbicidal evaluation, TRZAWR; assay type: in vivo, Triticum aestivum; settings: preemergence
Procedure, shortened: as §1

[6] = tested on: IPOHE Morningglory, Ivyleaf; assay: Postemergence herbicidal evaluation, IPOHE; assay type: in vivo, Ipomoea hederacea, (L.) Jacq.; settings: postemergence spray, rated about two-three weeks after treatment
Procedure, shortened: as §2

AMBEL Ragweed, Common [7] = assay: Preemergence herbicidal evaluation, AMBEL; assay type: in vivo, Ambrosia artemisifolia, L.; settings: preemergence
Procedure, shortened: as §1

GLXMAW Soybean, Williams [8] = assay: Postemergence herbicidal evaluation, GLXMAW; assay type: in vivo, Glycine max, (L.) Merr. cv Williams; settings: postemergence spray, rated about two-three weeks after treatment
Procedure, shortened: as §2

ORYSAT Rice, Tebonnet [9] = assay: Preemergence herbicidal evaluation, ORYSAT; assay type: in vivo, Oryza sativa, (L.); settings: preemergence
Procedure, shortened: as §1

[10] = tested on: IPOHE Morningglory, Ivyleaf; assay: Preemergence herbicidal evaluation, IPOHE; assay type: in vivo, Ipomoea hederacea, (L.) Jacq.; settings: preemergence
Procedure, shortened: as §1

GALAP Galium [11] = assay: Preemergence herbicidal evaluation, GALAP; assay type: in vivo, Galium aparine; settings: preemergence
Procedure, shortened: as §1

ZEAMX Corn, Field [12] = assay: Preemergence herbicidal evaluation, ZEAMX; assay type: in vivo, Zea mays, L. (Sammel-Bezeichnung); settings: preemergence
Procedure, shortened: as §1

ZEAMX Corn, Field [13] = assay: Postemergence herbicidal evaluation, ZEAMX; assay type: in vivo, Zea mays, L. (Sammel-Bezeichnung); settings: postemergence spray, rated about two-three weeks after treatment
Procedure, shortened: as §2

GLXMAW Soybean, Williams [14] = assay: Preemergence herbicidal evaluation, GLXMAW; assay type: in vivo, Glycine max, (L.) Merr. cv Williams; settings: preemergence
Procedure, shortened: as §1

[15] = tested on: CHEAL Lambsquarters, Common; assay: Postemergence herbicidal evaluation, CHEAL; assay type: in vivo, Chenopodium album, L.; settings: postemergence spray, rated about two-three weeks after treatment
Procedure, shortened: as §2

ECHOG Barnyardgrass [16] = assay: Preemergence herbicidal evaluation, ECHOG; assay type: in vivo, Echinochloa crus-galli, (L.) Beau; settings: preemergence
Procedure, shortened: as §1

AMBEL Ragweed, Common [17] = assay: Postemergence herbicidal evaluation, AMBEL; assay type: in vivo, Ambrosia artemisifolia, L.; settings: postemergence spray, rated about two-three weeks after treatment
Procedure, shortened: as §2

[18] = tested on: TRZAWR Wheat, Winter, cv Riband; assay: Postemergence herbicidal evaluation, TRZAWR; assay type: in vivo, Triticum aestivum; settings: postemergence spray, rated about two-three weeks after treatment
Procedure, shortened: as §2

ECHOG Barnyardgrass [19] = assay: Postemergence herbicidal evaluation, ECHOG; assay type: in vivo, Echinochloa crus-galli, (L.) Beau; settings: postemergence spray, rated about two-three weeks after treatment
Procedure, shortened: as §2

ABUTH Velvetleaf [20] = assay: Preemergence herbicidal evaluation, ABUTH; assay type: in vivo, Abutilon theophrasti, Medic.; settings: preemergence
Procedure, shortened: as §1

SETVI Foxtail, Green [21] = assay: Postemergence herbicidal evaluation, SETVI; assay type: in vivo, Setaria viridis, (L.) Beau; settings: postemergence spray, rated about two-three weeks after treatment
Procedure, shortened: as §2

CASOB Sicklepod [22] = assay: Postemergence herbicidal evaluation, CASOB; assay type: in vivo, Cassia obtusifolia, L.; settings: postemergence spray, rated about two-three weeks after treatment
Procedure, shortened: as §2

GALAP Galium [23] = assay: Postemergence herbicidal evaluation, GALAP; assay type: in vivo, Galium aparine; settings: postemergence spray, rated about two-three weeks after treatment
Procedure, shortened: as §2

ABUTH Velvetleaf [24] = assay: Postemergence herbicidal evaluation, ABUTH; assay type: in vivo, Abutilon theophrasti, Medic.; settings: postemergence spray, rated about two-three weeks after treatment
Procedure, shortened: as §2

C#CCOC(=O)COc1ccc(C)cc1-n1nnc2cc(F)c(-n3c(=O)cc(C(F)(F)F)n(C)c3=O)cc21 [Example 40]
8.5: Postemergence herbicidal rating ZEAMX (ZEAMX Corn, Field [13]; 0.062 kg/ha)
5.5: Postemergence herbicidal rating GLXMAW (GLXMAW Soybean, Williams [8]; 0.008 kg/ha) | Postemergence herbicidal rating TRZAWR ([18]; 0.032 kg/ha)
6.5: Postemergence herbicidal rating ORYSAT (ORYSAT Rice, Tebonnet [2]; 0.062 kg/ha) | Postemergence herbicidal rating GLXMAW (GLXMAW Soybean, Williams [8]; 0.032 kg/ha) | Postemergence herbicidal rating TRZAWR ([18]; 0.062 kg/ha)
2.0: TRZAWR herbicidal rating ([5]; rate 0.125 kg/ha) | ORYSAT herbicidal rating (ORYSAT Rice, Tebonnet [9]; rate 0.125 kg/ha) | Postemergence herbicidal rating GALAP (GALAP Galium [23]; 0.016 kg/ha) | Postemergence herbicidal rating GALAP (GALAP Galium [23]; 0.032 kg/ha)
7.0: Postemergence herbicidal rating GLXMAW (GLXMAW Soybean, Williams [8]; 0.062 kg/ha) | GALAP herbicidal rating (GALAP Galium [11]; rate 0.062 kg/ha) | Postemergence herbicidal rating CHEAL ([15]; 0.032 kg/ha) | Postemergence herbicidal rating AMBEL (AMBEL Ragweed, Common [17]; 0.016 kg/ha) | Postemergence herbicidal rating AMBEL (AMBEL Ragweed, Common [17]; 0.062 kg/ha)
4.0: SETVI herbicidal rating (SETVI Foxtail, Green [1]; rate 0.032 kg/ha) | Postemergence herbicidal rating ORYSAT (ORYSAT Rice, Tebonnet [2]; 0.008 kg/ha) | CASOB herbicidal rating (CASOB Sicklepod [3]; rate 0.032 kg/ha) | CASOB herbicidal rating (CASOB Sicklepod [3]; rate 0.125 kg/ha) | AMBEL herbicidal rating (AMBEL Ragweed, Common [7]; rate 0.032 kg/ha) | AMBEL herbicidal rating (AMBEL Ragweed, Common [7]; rate 0.125 kg/ha) | Postemergence herbicidal rating CHEAL ([15]; 0.008 kg/ha) | ECHCG herbicidal rating (ECHOG Barnyardgrass [16]; rate 0.125 kg/ha) | Postemergence herbicidal rating TRZAWR ([18]; 0.008 kg/ha) | Postemergence herbicidal rating ECHCG (ECHOG Barnyardgrass [19]; 0.008 kg/ha)
3.0: CASOB herbicidal rating (CASOB Sicklepod [3]; rate 0.062 kg/ha) | AMBEL herbicidal rating (AMBEL Ragweed, Common [7]; rate 0.062 kg/ha) | IPOHE herbicidal rating ([10]; rate 0.062 kg/ha) | Postemergence herbicidal rating CHEAL ([15]; 0.016 kg/ha) | Postemergence herbicidal rating CASOB (CASOB Sicklepod [22]; 0.032 kg/ha)
9.0: CHEAL herbicidal rating ([4]; rate 0.016 kg/ha) | CHEAL herbicidal rating ([4]; rate 0.032 kg/ha) | CHEAL herbicidal rating ([4]; rate 0.062 kg/ha) | CHEAL herbicidal rating ([4]; rate 0.125 kg/ha) | Postemergence herbicidal rating IPOHE ([6]; 0.008 kg/ha) | Postemergence herbicidal rating IPOHE ([6]; 0.016 kg/ha) | Postemergence herbicidal rating IPOHE ([6]; 0.032 kg/ha) | Postemergence herbicidal rating IPOHE ([6]; 0.062 kg/ha) | IPOHE herbicidal rating ([10]; rate 0.125 kg/ha) | GALAP herbicidal rating (GALAP Galium [11]; rate 0.125 kg/ha) | Postemergence herbicidal rating CHEAL ([15]; 0.062 kg/ha) | Postemergence herbicidal rating AMBEL (AMBEL Ragweed, Common [17]; 0.008 kg/ha) | Postemergence herbicidal rating AMBEL (AMBEL Ragweed, Common [17]; 0.032 kg/ha) | Postemergence herbicidal rating ECHCG (ECHOG Barnyardgrass [19]; 0.016 kg/ha) | Postemergence herbicidal rating ECHCG (ECHOG Barnyardgrass [19]; 0.032 kg/ha) | Postemergence herbicidal rating ECHCG (ECHOG Barnyardgrass [19]; 0.062 kg/ha) | ABUTH herbicidal rating (ABUTH Velvetleaf [20]; rate 0.032 kg/ha) | ABUTH herbicidal rating (ABUTH Velvetleaf [20]; rate 0.062 kg/ha) | ABUTH herbicidal rating (ABUTH Velvetleaf [20]; rate 0.125 kg/ha) | Postemergence herbicidal rating SETVI (SETVI Foxtail, Green [21]; 0.016 kg/ha) | Postemergence herbicidal rating SETVI (SETVI Foxtail, Green [21]; 0.032 kg/ha) | Postemergence herbicidal rating SETVI (SETVI Foxtail, Green [21]; 0.062 kg/ha) | Postemergence herbicidal rating ABUTH (ABUTH Velvetleaf [24]; 0.008 kg/ha) | Postemergence herbicidal rating ABUTH (ABUTH Velvetleaf [24]; 0.016 kg/ha) | Postemergence herbicidal rating ABUTH (ABUTH Velvetleaf [24]; 0.032 kg/ha) | Postemergence herbicidal rating ABUTH (ABUTH Velvetleaf [24]; 0.062 kg/ha)
1.0: IPOHE herbicidal rating ([10]; rate 0.032 kg/ha) | ZEAMX herbicidal rating (ZEAMX Corn, Field [12]; rate 0.062 kg/ha) | ZEAMX herbicidal rating (ZEAMX Corn, Field [12]; rate 0.125 kg/ha) | GLXMAW herbicidal rating (GLXMAW Soybean, Williams [14]; rate 0.062 kg/ha) | ABUTH herbicidal rating (ABUTH Velvetleaf [20]; rate 0.016 kg/ha) | Postemergence herbicidal rating CASOB (CASOB Sicklepod [22]; 0.008 kg/ha) | Postemergence herbicidal rating CASOB (CASOB Sicklepod [22]; 0.016 kg/ha) | Postemergence herbicidal rating GALAP (GALAP Galium [23]; 0.008 kg/ha)
7.5: Postemergence herbicidal rating ZEAMX (ZEAMX Corn, Field [13]; 0.016 kg/ha) | Postemergence herbicidal rating ZEAMX (ZEAMX Corn, Field [13]; 0.032 kg/ha)
6.0: SETVI herbicidal rating (SETVI Foxtail, Green [1]; rate 0.125 kg/ha) | Postemergence herbicidal rating GLXMAW (GLXMAW Soybean, Williams [8]; 0.016 kg/ha) | Postemergence herbicidal rating SETVI (SETVI Foxtail, Green [21]; 0.008 kg/ha) | Postemergence herbicidal rating CASOB (CASOB Sicklepod [22]; 0.062 kg/ha)
0.0: SETVI herbicidal rating (SETVI Foxtail, Green [1]; rate 0.016 kg/ha) | CASOB herbicidal rating (CASOB Sicklepod [3]; rate 0.016 kg/ha) | TRZAWR herbicidal rating ([5]; rate 0.016 kg/ha) | TRZAWR herbicidal rating ([5]; rate 0.032 kg/ha) | TRZAWR herbicidal rating ([5]; rate 0.062 kg/ha) | AMBEL herbicidal rating (AMBEL Ragweed, Common [7]; rate 0.016 kg/ha) | ORYSAT herbicidal rating (ORYSAT Rice, Tebonnet [9]; rate 0.016 kg/ha) | ORYSAT herbicidal rating (ORYSAT Rice, Tebonnet [9]; rate 0.032 kg/ha) | ORYSAT herbicidal rating (ORYSAT Rice, Tebonnet [9]; rate 0.062 kg/ha) | IPOHE herbicidal rating ([10]; rate 0.016 kg/ha) | GALAP herbicidal rating (GALAP Galium [11]; rate 0.032 kg/ha) | ZEAMX herbicidal rating (ZEAMX Corn, Field [12]; rate 0.016 kg/ha) | ZEAMX herbicidal rating (ZEAMX Corn, Field [12]; rate 0.032 kg/ha) | GLXMAW herbicidal rating (GLXMAW Soybean, Williams [14]; rate 0.016 kg/ha) | GLXMAW herbicidal rating (GLXMAW Soybean, Williams [14]; rate 0.032 kg/ha) | GLXMAW herbicidal rating (GLXMAW Soybean, Williams [14]; rate 0.125 kg/ha) | ECHCG herbicidal rating (ECHOG Barnyardgrass [16]; rate 0.016 kg/ha) | ECHCG herbicidal rating (ECHOG Barnyardgrass [16]; rate 0.032 kg/ha) | ECHCG herbicidal rating (ECHOG Barnyardgrass [16]; rate 0.062 kg/ha)
5.0: SETVI herbicidal rating (SETVI Foxtail, Green [1]; rate 0.062 kg/ha) | Postemergence herbicidal rating ORYSAT (ORYSAT Rice, Tebonnet [2]; 0.016 kg/ha) | Postemergence herbicidal rating ORYSAT (ORYSAT Rice, Tebonnet [2]; 0.032 kg/ha) | Postemergence herbicidal rating ZEAMX (ZEAMX Corn, Field [13]; 0.008 kg/ha) | Postemergence herbicidal rating TRZAWR ([18]; 0.016 kg/ha) | Postemergence herbicidal rating GALAP (GALAP Galium [23]; 0.062 kg/ha)
